Columns and labels:
[1] = target: T1, Neutral cholesterol ester hydrolase 1 (Homo sapiens, UniProt Q6PIU2); experiment: Inhibition of human KIAA1363 expressed in 293T/17 cells using 2-thioacetyl MAGE as substrate preincubated for 20 mins measured after 1 hr; type: cell-based
T1 sequence (Q6PIU2 whole entry): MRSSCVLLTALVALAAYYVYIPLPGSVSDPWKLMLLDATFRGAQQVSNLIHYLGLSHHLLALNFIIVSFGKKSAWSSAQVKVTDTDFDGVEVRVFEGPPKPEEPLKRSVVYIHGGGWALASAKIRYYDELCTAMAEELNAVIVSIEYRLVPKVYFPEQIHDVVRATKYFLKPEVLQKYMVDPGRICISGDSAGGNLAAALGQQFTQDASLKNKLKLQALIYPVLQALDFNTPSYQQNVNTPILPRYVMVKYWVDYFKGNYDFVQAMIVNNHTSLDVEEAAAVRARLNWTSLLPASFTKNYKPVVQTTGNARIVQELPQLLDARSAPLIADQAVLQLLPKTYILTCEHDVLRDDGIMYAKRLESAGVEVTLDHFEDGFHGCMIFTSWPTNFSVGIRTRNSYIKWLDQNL

Mus musculus [2] = experiment: Inhibition of KIAA1363 in tumor of SCID mouse xenografted with human SK-OV-3 cells at 100 mg/kg, po after 2 hrs by fluorescence assay; type: functional; settings: SK-OV-3, 2 h
Mus musculus [3] = experiment: Inhibition of KIAA1363 in heart of SCID mouse at 100 mg/kg, ip after 2 hrs by fluorescence assay; type: functional; settings: route intraperitoneal
Mus musculus [4] = experiment: Inhibition of KIAA1363 in tumor of SCID mouse xenografted with human SK-OV-3 cells at 100 mg/kg, ip after 2 hrs by fluorescence assay; type: functional; settings: SK-OV-3, ip, route intraperitoneal

| SMILES | IC50 [1] | inhibition in vivo at 100 mg/kg (Mus musculus [2]) | other results |
| --- | --- | --- | --- |
| CN(C)C(=O)Oc1ccc2ccccc2c1Cl | 1.1 µM |  |  |
| CN(C)C(=O)Oc1ccccc1Br | > 100 µM |  |  |
| CN(C)C(=O)Oc1ccc2ccccc2c1C#N | > 100 µM |  |  |
| CN(C)C(=O)Oc1ccc2cc(C#N)ccc2c1Br |  | 14% |  |
| CCCc1ccc2c(Br)c(OC(=O)N(C)C)ccc2c1 |  | 22% | inhibition in vivo at 100 mg/kg (Mus musculus [3]): 66%; inhibition in vivo at 100 mg/kg (Mus musculus [4]): 64% |
| CN(C)C(=O)Oc1ccc2cc(Br)ccc2c1Br |  | 18% |  |
| CN(C)C(=O)Oc1ccc2ccccc2c1 [NAPHTHALEN-2-YL DIMETHYLCARBAMATE] | > 100 µM |  |  |
